{
  "source": "paper PMC3900681",
  "about": "“Flock House Virus RNA Polymerase Initiates RNA Synthesis De Novo and Possesses a Terminal Nucleotidyl Transferase Activity” (PLoS ONE, 2014)",
  "target": "T1, FHV protein A (MBP-Pro A) (Flock House virus, UniProt Q66929)",
  "T1 construct": "N-terminal MBP fusion (pMAL-c2X, EcoRI-SalI), tag kept; E. coli, amylose resin; ~155 kDa",
  "T1 sequence (Q66929 whole entry, the tested form may be a part)": "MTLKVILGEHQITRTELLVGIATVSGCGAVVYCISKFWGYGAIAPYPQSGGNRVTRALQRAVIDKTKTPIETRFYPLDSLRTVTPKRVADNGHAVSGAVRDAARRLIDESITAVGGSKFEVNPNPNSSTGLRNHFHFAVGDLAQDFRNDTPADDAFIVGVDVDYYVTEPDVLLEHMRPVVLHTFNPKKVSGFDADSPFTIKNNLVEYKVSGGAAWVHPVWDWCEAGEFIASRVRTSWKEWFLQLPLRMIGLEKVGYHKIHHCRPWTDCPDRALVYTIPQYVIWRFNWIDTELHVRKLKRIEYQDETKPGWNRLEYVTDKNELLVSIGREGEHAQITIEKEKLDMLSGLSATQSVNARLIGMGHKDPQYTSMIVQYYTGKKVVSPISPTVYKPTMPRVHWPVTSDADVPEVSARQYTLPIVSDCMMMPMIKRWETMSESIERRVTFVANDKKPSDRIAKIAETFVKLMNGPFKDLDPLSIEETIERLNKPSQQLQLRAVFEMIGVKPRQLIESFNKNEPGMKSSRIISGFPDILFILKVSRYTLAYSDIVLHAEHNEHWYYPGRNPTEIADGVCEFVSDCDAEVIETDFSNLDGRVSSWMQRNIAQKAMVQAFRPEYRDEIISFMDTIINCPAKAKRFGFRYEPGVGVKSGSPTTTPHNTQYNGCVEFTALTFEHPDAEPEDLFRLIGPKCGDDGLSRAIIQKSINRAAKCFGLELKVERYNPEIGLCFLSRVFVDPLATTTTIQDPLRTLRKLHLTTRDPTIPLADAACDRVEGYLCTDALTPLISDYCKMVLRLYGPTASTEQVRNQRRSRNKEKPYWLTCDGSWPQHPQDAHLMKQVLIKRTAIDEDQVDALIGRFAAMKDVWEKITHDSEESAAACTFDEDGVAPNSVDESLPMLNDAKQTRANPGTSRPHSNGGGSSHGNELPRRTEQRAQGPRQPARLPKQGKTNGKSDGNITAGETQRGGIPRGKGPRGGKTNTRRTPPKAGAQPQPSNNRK",
  "test": "RdRP assay, DIG-labelled RNA product on denaturing gel",
  "type": "biochemical",
  "details": "blocked (+)-RNA1_1-191 template, 250 uM DIG RNA Labelling Mix, 1 mM MnCl2, pH 8.0, 30 C, 90 min",
  "data": [
    {"smiles": "O=C(O)CP(=O)(O)O", "note": "[PAA, phosphonoacetic acid]", "values": [
      {"measurement": "inhibition, dose-response", "result": "PAA dramatically inhibited the RdRP activity of FHV protein A in a dose-response manner"}
    ]}
  ]
}
